Data taken from patent US20170217976A1, “6-(AMINO ACID)-MORPHINAN DERIVATIVES IN COMBINATION WITH PERMEATION […] FOR USE AS AN ORALLY, […], TRA[…] NASALLY AD[…]” (C[…], priority 2014, published 2017).
Where two headings read alike, the source gives them in different places.

What was measured:
DOR = biological target: T1, DOR (Rattus norvegicus, UniProt P33533); assay: Opioid receptor binding, DOR, rat brain membranes
T1 construct: from tissue

MOR = biological target: T2, MOR (Rattus norvegicus, UniProt P33535); assay: Opioid receptor binding, MOR, rat brain membranes
T2 construct: from tissue

KOR = biological target: T3, KOR (Cavia porcellus, UniProt P41144); assay: Opioid receptor binding, KOR, guinea pig brain membranes
T3 construct: from tissue

[1] = Binding Ki DOR, Table 2-6, rat brain membranes
[2] = Binding Ki MOR, Table 2-6, rat brain membranes
[3] = Binding Ki KOR, Table 2-6, guinea pig brain membranes
[4] = Table 2-6, rat brain membranes, read-out: Binding Ki DOR
[5] = Table 2-6, rat brain membranes, read-out: Binding Ki MOR
[6] = Table 2-6, guinea pig brain membranes, read-out: Binding Ki KOR
[7] = Binding Ki (nM) DOR, in vitro binding assay, rat brain membranes
[8] = Binding Ki DOR, Table 1-4, rat brain membranes
[9] = Binding Ki (nM) MOR, in vitro binding assay, rat brain membranes
[10] = Binding Ki MOR, Table 1-4, rat brain membranes
[11] = Binding Ki (nM) KOR, in vitro binding assay, guinea pig brain membranes
[12] = Binding Ki KOR, Table 1-4, guinea pig brain membranes
[13] = Table 1-4, rat brain membranes, read-out: Binding Ki DOR
[14] = Table 1-4, rat brain membranes, read-out: Binding Ki MOR
[15] = Table 1-4, guinea pig brain membranes, read-out: Binding Ki KOR

T1 sequence (P33533 whole entry): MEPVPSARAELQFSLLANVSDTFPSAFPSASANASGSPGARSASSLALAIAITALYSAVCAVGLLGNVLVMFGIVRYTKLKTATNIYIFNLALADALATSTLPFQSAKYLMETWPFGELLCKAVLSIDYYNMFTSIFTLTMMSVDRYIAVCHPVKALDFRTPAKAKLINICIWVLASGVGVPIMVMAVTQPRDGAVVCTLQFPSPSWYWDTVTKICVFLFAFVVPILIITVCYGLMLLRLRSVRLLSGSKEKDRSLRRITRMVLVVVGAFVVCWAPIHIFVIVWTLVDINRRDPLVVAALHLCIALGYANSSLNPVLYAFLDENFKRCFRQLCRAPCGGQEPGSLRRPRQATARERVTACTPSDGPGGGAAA
T3 sequence (P41144 whole entry): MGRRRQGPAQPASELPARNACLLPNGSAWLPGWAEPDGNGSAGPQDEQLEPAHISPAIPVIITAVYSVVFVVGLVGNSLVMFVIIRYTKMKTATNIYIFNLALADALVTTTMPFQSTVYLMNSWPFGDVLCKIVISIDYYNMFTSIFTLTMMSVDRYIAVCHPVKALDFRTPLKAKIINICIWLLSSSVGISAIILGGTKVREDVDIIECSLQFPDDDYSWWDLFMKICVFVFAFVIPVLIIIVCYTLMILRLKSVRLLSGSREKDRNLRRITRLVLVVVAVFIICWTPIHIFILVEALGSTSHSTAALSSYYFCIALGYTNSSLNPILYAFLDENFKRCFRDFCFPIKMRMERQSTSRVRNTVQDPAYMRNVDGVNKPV
T2 sequence (P33535 whole entry): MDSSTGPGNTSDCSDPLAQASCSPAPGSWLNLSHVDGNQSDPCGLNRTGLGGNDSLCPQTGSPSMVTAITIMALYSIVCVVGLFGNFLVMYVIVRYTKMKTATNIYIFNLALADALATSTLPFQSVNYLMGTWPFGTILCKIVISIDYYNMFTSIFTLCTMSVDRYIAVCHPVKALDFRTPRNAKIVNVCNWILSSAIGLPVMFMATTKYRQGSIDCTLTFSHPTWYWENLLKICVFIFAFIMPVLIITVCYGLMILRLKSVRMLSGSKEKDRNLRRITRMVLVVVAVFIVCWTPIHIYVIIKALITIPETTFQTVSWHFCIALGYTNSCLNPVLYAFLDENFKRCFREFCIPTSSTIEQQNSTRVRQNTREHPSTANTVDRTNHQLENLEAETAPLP

Compound	Ki (DOR; [1]) [nM]	Ki (MOR; [2]) [nM]	Ki (KOR; [3]) [nM]	also measured
CC(C)(C)OC(=O)[C@H](Cc1ccccc1)N[C@H]1CC[C@@]2(O)[C@H]3Cc4ccc(O)c5c4[C@@]2(CCN3CC2CC2)[C@H]1O5 [59-tBu ester]	2.15	1	5	
CC(C)(C)OC(=O)[C@H](Cc1ccccc1)N[C@@H]1CC[C@@]2(O)[C@H]3Cc4ccc(O)c5c4[C@@]2(CCN3CC2CC2)[C@H]1O5 [60-tBu ester]	1.12	5.49	17.6	
CO[C@@]12CC[C@H](NCC(=O)OC(C)(C)C)[C@@H]3Oc4c(O)ccc5c4[C@@]31CCN(CC1CC1)[C@@H]2C5 [61-tBu ester]	0.5	0.43	1.41	
CO[C@@]12CC[C@@H](NCC(=O)OC(C)(C)C)[C@@H]3Oc4c(O)ccc5c4[C@@]31CCN(CC1CC1)[C@@H]2C5 [62-Bu ester]				Ki (DOR; [4]): 0.96 nM; Ki (MOR; [5]): 2.66 nM; Ki (KOR; [6]): 8.36 nM
CO[C@@]12CC[C@@H](NCCC(=O)OC(C)(C)C)[C@@H]3Oc4c(O)ccc5c4[C@@]31CCN(CC1CC1)[C@@H]2C5 [64-tBu ester]	0.91	1.52	2.13	
CO[C@@]12CC[C@H](NCCCC(=O)OC(C)(C)C)[C@@H]3Oc4c(O)ccc5c4[C@@]31CCN(CC1CC1)[C@@H]2C5 [65-tBu ester]	2.69	0.46	0.6	
CO[C@@]12CC[C@@H](NCCCC(=O)OC(C)(C)C)[C@@H]3Oc4c(O)ccc5c4[C@@]31CCN(CC1CC1)[C@@H]2C5 [66-tBu ester]	3.78	2.13	2.81	
CO[C@@]12CC[C@H](N[C@H](C(=O)OC(C)(C)C)C(C)C)[C@@H]3Oc4c(O)ccc5c4[C@@]31CCN(CC1CC1)[C@@H]2C5 [68-tBu ester]				Ki (DOR; [4]): 0.85 nM; Ki (MOR; [5]): 1.81 nM; Ki (KOR; [6]): 3.13 nM
CO[C@@]12CC[C@@H](N[C@H](C(=O)OC(C)(C)C)C(C)C)[C@@H]3Oc4c(O)ccc5c4[C@@]31CCN(CC1CC1)[C@@H]2C5 [69-tBu ester]	0.7	1.23	4.32	
CO[C@@]12CC[C@H](N[C@@H](C(=O)OC(C)(C)C)C(C)C)[C@@H]3Oc4c(O)ccc5c4[C@@]31CCN(CC1CC1)[C@@H]2C5 [70-tBu ester]	0.51	0.63	18.8	
CO[C@@]12CC[C@@H](N[C@@H](C(=O)OC(C)(C)C)C(C)C)[C@@H]3Oc4c(O)ccc5c4[C@@]31CCN(CC1CC1)[C@@H]2C5 [71-tBu ester]	0.24	1.94	15.2	
CO[C@@]12CC[C@H](N[C@@H](CC(C)C)C(=O)OC(C)(C)C)[C@@H]3Oc4c(O)ccc5c4[C@@]31CCN(CC1CC1)[C@@H]2C5 [76-tBu ester]	0.092	0.13	0.8	
CO[C@@]12CC[C@@H](N[C@@H](CC(C)C)C(=O)OC(C)(C)C)[C@@H]3Oc4c(O)ccc5c4[C@@]31CCN(CC1CC1)[C@@H]2C5 [77-tBu ester]	0.094	0.13	0.68	
CC[C@H](C)[C@H](N[C@@H]1CC[C@@]2(OC)[C@H]3Cc4ccc(O)c5c4[C@@]2(CCN3CC2CC2)[C@H]1O5)C(=O)OC(C)(C)C [78-tBu ester]	0.52	0.98	5.67	
CCO[C@@]12CC[C@H](NCC(=O)O)[C@@H]3Oc4c(O)ccc5c4[C@@]31CCN(C)[C@@H]2C5 [Compound 5]				Ki (DOR; [7]): 10.3 nM; Ki (DOR; [8]): 10.3 nM; Ki (MOR; [9]): 0.57 nM; Ki (MOR; [10]): 0.57 nM; Ki (KOR; [11]): 45.2 nM; Ki (KOR; [12]): 45.2 nM
CCO[C@@]12CC[C@@H](NCC(=O)O)[C@@H]3Oc4c(O)ccc5c4[C@@]31CCN(C)[C@@H]2C5 [Compound 6]				Ki (DOR; [7]): 5.31 nM; Ki (DOR; [8]): 5.31 nM; Ki (MOR; [9]): 0.95 nM; Ki (MOR; [10]): 0.95 nM; Ki (KOR; [11]): 102 nM; Ki (KOR; [12]): 102 nM
CN1CC[C@]23c4c5ccc(O)c4O[C@H]2[C@@H](N[C@@H](Cc2ccccc2)C(=O)O)CC[C@@]3(O)[C@H]1C5 [Compound 11]				Ki (DOR; [8]): 19 nM; Ki (MOR; [10]): 2.3 nM; Ki (KOR; [12]): 344 nM
CN1CC[C@]23c4c5ccc(O)c4O[C@H]2[C@H](N[C@@H](Cc2ccccc2)C(=O)O)CC[C@@]3(O)[C@H]1C5 [Compound 12]				Ki (DOR; [13]): 8.29 nM; Ki (MOR; [14]): 6.91 nM; Ki (KOR; [15]): 634 nM
CC(NC1CCC2(O)C3Cc4ccc(O)c5c4C2(CCN3C)C1O5)C(=O)O (stereo not drawn) [Compound 13]				Ki (DOR; [13]): 170 nM; Ki (MOR; [14]): 3 nM; Ki (KOR; [15]): 710 nM
C[C@H](N[C@@H]1CC[C@@]2(O)[C@H]3Cc4ccc(O)c5c4[C@@]2(CCN3C)[C@H]1O5)C(=O)O [Compound 14]				Ki (DOR; [8]): 78.7 nM; Ki (MOR; [10]): 11 nM; Ki (KOR; [12]): 542 nM
